Legend:
Format in all cases: cell-based, human
[1] = system: HLA-B*52:01-restricted CD8+ T cells (PBMCs of HIV-1 subtype B-infected individuals); experiment: IFN-γ ELISPOT assay, T cell responses to peptides in HLA-B*52:01+ individuals; conditions: positive >200 spots/10^6 CD8+ T cells
Protocol: Ex vivo gamma interferon (IFN-γ) ELISPOT assays were performed as previously described ([6], [49]). The number of spots for a T cell response to each peptide was finally calculated by subtracting the number of spots in wells without peptides. The mean + 3 standard deviations (SD) of the spot number of samples from 13 HIV-1 naive individuals for the peptides was 162 spots/10^6 CD8^+ T cells ([6], [49]). Therefore, we defined >200 spots/10^6 CD8^+ T cells as positive responses.

[2] = system: RI8-6T-specific T cell lines (KI-906); experiment: ICS assay, 721.221-B*52:01 cells prepulsed with peptide, T cell lines from KI-906; conditions: two RI8-6T-specific T cell lines from KI-906 (Nov 2010, Aug 2013); 2 h, then brefeldin A 4 h at 37°C; IFN-γ+ of CD8+ T cells; means with SD (n = 3)
Source text: (§1) PBMCs were stained with PE- or APC-conjugated tetramers, FITC-conjugated anti-CD3 (Dako, Glostrup, Denmark), Pacific blue-conjugated anti-CD8 MAb (BD Biosciences), and 7-AAD (BD Pharmingen), after which CD3^+ CD8^+ 7AAD^− tetramer^+ T cells were sorted in U-bottomed 96-well microtiter plates (1 cell/well for T cell clones and 100 to 500 cells/well for T cell lines) by using a FACSAria (BD Biosciences). The sorted cells were stimulated with the corresponding epitope peptide and cultured as previously described ([51]). After 2 to 3 weeks in culture, epitope-specific CD8^+ T cells were used in functional assays after their purity had been confirmed by flow cytometry analysis using tetramers.
(§2) 721.221 cells prepulsed with HIV-1 epitope peptide or 721.221 cells infected with HIV-1 were cocultured with T cell clones or lines in a 96-well plate for 2 h at 37°C. Brefeldin A (10 μg/ml) was then added, and the cells were incubated further for 4 h at 37°C. The cells were then fixed with 4% paraformaldehyde and incubated in permeabilization buffer (0.1% saponin–10% fetal bovine serum [FBS]–phosphate-buffered saline [PBS]), after which they were stained with APC-conjugated anti-CD8 MAb (Dako, Denmark) followed by FITC-conjugated anti-IFN-γ MAb (BD Biosciences). The percentage of IFN-γ-producing cells among the CD8^+ T cell population was determined by use of the FACSCanto II.

[3] = system: RI8-6T-specific T cell clone 2F (KI-855); experiment: ICS assay, 721.221-B*52:01 cells prepulsed with peptide, clone 2F from KI-855; conditions: RI8-6T-specific T cell clone 2F from KI-855; 2 h, then brefeldin A 4 h at 37°C; IFN-γ; means with SD (n = 3)
Source text: as §1, §2

[4] = system: cross-reactive T cell clone 8F (KI-855); experiment: ICS assay, 721.221-B*52:01 cells prepulsed with peptide, clone 8F from KI-855; conditions: cross-reactive clone 8F from KI-855; 2 h, then brefeldin A 4 h at 37°C; IFN-γ; means with SD (n = 3)
Source text: as §1, §2

RMYSPTSI [RI8-6T]
number of individuals with epitope-specific T cells detected ([1]; 12 HLA-B*52:01+ individuals infected with Gag280V virus, IFN-γ ELISPOT): 4 individuals
T cell response to peptide in individual KI-809 ([1]; PBMCs from wild-type virus-infected KI-809, ELISPOT): strong T cell response
recognition of 721.221-B*52:01 cells prepulsed with peptide [2]: recognized
recognition of 721.221-B*52:01 cells prepulsed with peptide [3]: effectively recognized
recognition of 721.221-B*52:01 cells prepulsed with peptide [4]: effectively recognized
